Measured values published in ChEMBL document CHEMBL3430912, “GSK Tres Cantos Anti-Kinetoplastid Screening (TCAKS) Data”.

What was measured:
Leishmania donovani [1] = assay: (§1) GSK_TCAKS: pIC50 Leishmania donovani Imaging: THP-1 Host Macrophages. Assay plates (384-well) were prepared by adding 250nL of compound to each well. For single shot assay, the final compound concentration was 5 uM. […] Automated image analysis was performed with a script developed on Acapella High Content Imaging and Analysis Software (PerkinElmer). Output: THP-1 cell count were reported for each well.; format: functional, organism-based, Homo sapiens
[2] = GSK_TCAKS: pIC50 HepG2 human cell line viability assay using luminiscence. […] Seeding density was checked to ensure that new mono-layers were not more than 50% confluent at the time of harvesting. Cell suspension was added to 500 mL of the same medium at a final density of 1.2 * 10^5 cells/mL. This cell suspension was dispensed (25 uL, 3000 cells per well) into 384-well clear-bottom plates using a Multidrop Combi dispenser. Prior to addition of the cell suspension, the screening compounds (250 nL) were pre-dispensed into the plates with an Echo liquid handler. Plates were incubated for 48 h at 37C, 5% CO2. After incubation, plates equilibrated at room temperature for 30 min before proceeding to develop the luminescent signal. The signal developer, CellTiter-Glo Reagent, was allowed to equilibrate at room temperature for 30 min and added to the plates (25uL per well) using a Multidrop Combi dispenser. Plates were left for 10 min at room temperature for stabilization and then read using a ViewLux.; format: toxicity, cell-based
[3] = molecular target: Sterol 14-alpha demethylase (Trypanosoma cruzi (strain CL Brener), UniProt Q7Z1V1); assay: GSK_TCAKS: pIC50 CYP51 from Trypanosoma cruzi.; format: functional
Sterol 14-alpha demethylase, sequence (Q7Z1V1 whole entry): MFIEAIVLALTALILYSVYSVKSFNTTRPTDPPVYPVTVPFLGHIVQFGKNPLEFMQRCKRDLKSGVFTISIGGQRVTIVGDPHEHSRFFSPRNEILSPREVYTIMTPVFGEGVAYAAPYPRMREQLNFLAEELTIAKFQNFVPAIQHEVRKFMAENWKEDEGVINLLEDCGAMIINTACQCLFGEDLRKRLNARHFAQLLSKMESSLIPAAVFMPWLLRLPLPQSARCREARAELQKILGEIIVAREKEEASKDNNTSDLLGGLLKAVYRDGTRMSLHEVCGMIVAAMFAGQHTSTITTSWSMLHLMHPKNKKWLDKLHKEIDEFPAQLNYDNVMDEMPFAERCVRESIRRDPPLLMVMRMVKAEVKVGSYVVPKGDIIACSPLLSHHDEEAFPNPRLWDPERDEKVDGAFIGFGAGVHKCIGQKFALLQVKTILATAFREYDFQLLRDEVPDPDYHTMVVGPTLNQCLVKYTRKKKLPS

[4] = tested on: Trypanosoma brucei brucei; assay: GSK_TCAKS: pIC50 Trypanosoma brucei viability assay using luminiscence. Assay plates (1536-well) were prepared. T. brucei cultures were harvested and counted in a CASY cell counter. A parasite suspension was prepared at a final concentration of 5 * 10^4 cells/mL in complete HMI9 medium and 6uL was dispensed to all wells containing compounds using a Multidrop Combi dispenser. 6uL of HMI9 media with 0.4% DMSO were dispensed to control columns. Plates were incubated for 24 h at 37C, 5% CO2 then tempered for 10 min at room temperature. ATP content was quantified by adding 4 uL of CellTiter-Glo Reagent (Promega) according to the manufacturer's instructions. Luminescence was measured using a ViewLux.; format: functional, organism-based; settings: Lister 427, CASY
Trypanosoma cruzi [5] = assay: GSK_TCAKS: pIC50 Trypanosoma cruzi viability assay using beta-GAL activity. This assay was run at single shot at 5uM compound concentration per well. The biological reagents consisted of NIH-3T3 host cells and trypomastigotes parasitic cells; both cell types were set to a 3.3 * 10^5 cells/mL dilution in assay DMEM by means of a CASY cell counter device using a 60um capillary. 6 uL of the mixture were dispensed per well (about 1 * 10^3 host-cells and 1 * 10^3 parasites) with a Multidrop Combi dispenser. […] In all wells, the percentage of DMSO never exceeded 0.5%. Plates incubated for four days at 37C, 5% CO2. The substrate used for the assay fluorescence intensity (FLINT) readout was resorufin-beta-D-galactopiranoside (Sigma-Aldrich) at 5uM per well. It was diluted in PBS supplemented with the soft detergent Igepal (Fluka).; format: functional, organism-based, Mus musculus; settings: Tulahuen, NIH3T3
Trypanosoma cruzi [6] = assay: (§2) GSK_TCAKS: pIC50 Trypanosoma cruzi Imaging: Infected Cells. […] Cells were then washed once with PBS before infection. T. cruzi trypomastigotes, collected at days 5 to 8 after infection from LLC-MK2 parasite infected cultures, were allowed to swim out for 4h at 37C from a centrifuged pellet (2,500 rpm/10 min/room temperature). Trypomastigotes were then collected and counted in a CASY Cell Counter. Trypomastigotes, in supplemented DMEM, were added to H9c2 cultures in a multiplicity of infection of 1 and incubated for 18 h. Cells were washed once with PBS before incubation of the infected H9c2 monolayer with trypsin (Life-Technologies) to detach cells from the flask. Cells were counted in a CASY Cell Counter using a 150 um capillary and their density set at 5 * 10^4 cells per mL in supplemented assay DMEM. Infected H9c2 were dispensed into 384-well poly-lysine coated assay plates at 50uL per well using a Multidrop Combi dispenser. After seeding them, the plates were incubated at 37C, 5% CO2 for 72h. Cultures were then fixed and stained by addition of 50 uL of a solution containing 8% formaldehyde and 4 uM DRAQ5 DNA dye (BioStatus, UK) per well. […] Five images were collected per well for reliable statistical analysis. Automated image analysis was performed with a script developed on Acapella High Content Imaging and Analysis Software (PerkinElmer). Output: percentage of infected cells per well as a second infection marker.; format: functional, organism-based, Rattus norvegicus; settings: H9c2, 4 h
Leishmania donovani [7] = assay: as §1, with “Amastigotes/Macrophages.” for “THP-1 Host Macrophages.”, “Average number of amastigotes per macrophage” for “THP-1”, “cell” for “cell count”; format: functional, organism-based, Homo sapiens; settings: THP-1
[8] = tested on: Trypanosoma brucei brucei; assay: GSK_TCAKS: pIC50 Trypanosoma brucei viability assay using fluorescence intensity. Assay plates (1536-well) were prepared by dispensing 25nL of compound solution per well using an Echo acoustic dispenser (Labcyte).; format: functional, organism-based; settings: Lister 427, 2 h
Trypanosoma cruzi [9] = assay: as §2, with “H2C9” for “Trypanosoma cruzi”, “H9c2 Host Cardiomyocytes.” for “Infected Cells.”, “Number” for “percentage”, “H9c2 Host Cardiomyocytes nuclei to determine drug-related cytotoxicity.” for “infected cells per well as a second infection marker.”; format: functional, organism-based, Rattus norvegicus; settings: H9c2, 4 h
Leishmania donovani [10] = assay: as §1, with “Infected” for “THP-1 Host”, “Percent of infected macrophage cells” for “THP-1 cell count”; format: functional, organism-based, Homo sapiens; settings: THP-1
Trypanosoma cruzi [11] = assay: GSK_TCAKS: pIC50 Trypanosoma cruzi Imaging: Amastigotes/Cell. […] Cells were then washed once with PBS before infection. T. cruzi trypomastigotes, collected at days 5 to 8 after infection from LLC-MK2 parasite infected cultures, were allowed to swim out for 4h at 37C from a centrifuged pellet (2,500 rpm/10 min/room temperature). Trypomastigotes were then collected and counted in a CASY Cell Counter. Trypomastigotes, in supplemented DMEM, were added to H9c2 cultures in a multiplicity of infection of 1 and incubated for 18 h. Cells were washed once with PBS before incubation of the infected H9c2 monolayer with trypsin (Life-Technologies) to detach cells from the flask. Cells were counted in a CASY Cell Counter using a 150 um capillary and their density set at 5 * 10^4 cells per mL in supplemented assay DMEM. Infected H9c2 were dispensed into 384-well poly-lysine coated assay plates at 50uL per well using a Multidrop Combi dispenser. After seeding them, the plates were incubated at 37C, 5% CO2 for 72h. Cultures were then fixed and stained by addition of 50 uL of a solution containing 8% formaldehyde and 4 uM DRAQ5 DNA dye (BioStatus, UK) per well. […] Five images were collected per well for reliable statistical analysis. Automated image analysis was performed with a script developed on Acapella High Content Imaging and Analysis Software (PerkinElmer). Output: number of amastigotes per cell as infection level measurement.; format: functional, organism-based, Rattus norvegicus; settings: H9c2, 4 h
Leishmania donovani [12] = assay: GSK_TCAKS: pIC50 Leishmania donovani viability assay using fluorescence intensity. Assay plates (1536-well) were prepared by adding 30nL per well of compound. For single shot assay, the final compound concentration was 5uM. […] Briefly, eGFP LdBOB axenic amastigotes were harvested, fixed and counted in a CASY cell counter (Roche-Applied Science). A final concentration of 1.5 * 10^5 cells per well were prepared in amastigote media containing 500 U/mL penicillin/streptomycin (Invitrogen) and 6uL was dispensed to each experimental well using a Multidrop Combi dispenser (Thermo Scientific). 6uL of assay media was dispensed to control columns used as reference for 100% compound response. Following incubation for 72 h at 37C, 5% CO2, 2 uL of resazurin was added to each well at a final concentration of 0.5 mM in phosphate buffered saline (PBS) with IGEPAL (Sigma-Aldrich), 0.05% (v/v).; format: functional, organism-based

SMILES: CC1CN(Cc2ccc(C#N)cc2)CCN1c1ccc(NC(=O)c2ccccc2F)cc1 (stereo not drawn)
- IC50 (Leishmania donovani [1]): > 50100 nM
- IC50 at 48 h [2]: > 100 µM
- IC50 [3]: 31.6 µM
- IC50 [4]: > 39800 nM
- IC50 (Trypanosoma cruzi [5]): 25.1 µM
- IC50 (Trypanosoma cruzi [6]): > 50.1 µM
- IC50 (Leishmania donovani [7]): 5010 nM
- IC50 [8]: > 39800 nM
- IC50 (Trypanosoma cruzi [9]): > 50100 nM
- IC50 (Leishmania donovani [10]): 10000 nM
- IC50 (Trypanosoma cruzi [11]): > 50.1 µM
- IC50 (Leishmania donovani [12]): 39.8 µM

SMILES: COc1ncc(-c2ccc3nccc(-c4ccncc4)c3c2)cc1NS(C)(=O)=O
- IC50 (Leishmania donovani [1]): 3160 nM
- IC50 at 48 h [2]: > 100 µM
- IC50 [3]: 79.4 µM
- IC50 [4]: 1000 nM
- IC50 (Trypanosoma cruzi [5]): 1.58 µM
- IC50 (Trypanosoma cruzi [6]): 25.1 µM
- IC50 (Leishmania donovani [7]): 631 nM
- IC50 [8]: 316 nM
- IC50 (Trypanosoma cruzi [9]): 5010 nM
- IC50 (Leishmania donovani [10]): 2510 nM
- IC50 (Trypanosoma cruzi [11]): 12.6 µM
- IC50 (Leishmania donovani [12]): 3.16 µM

SMILES: CCCCc1cc(Nc2cc(C3CCC3)[nH]n2)nc(N2CCC2C(N)=O)n1 (stereo not drawn)
- IC50 (Leishmania donovani [1]): 1000 nM
- IC50 at 48 h [2]: > 100 µM
- IC50 [3]: > 100 µM
- IC50 [4]: 158 nM
- IC50 (Trypanosoma cruzi [5]): 3.16 µM
- IC50 (Trypanosoma cruzi [6]): 3.16 µM
- IC50 (Leishmania donovani [7]): 631 nM
- IC50 [8]: 126 nM
- IC50 (Trypanosoma cruzi [9]): 794 nM
- IC50 (Leishmania donovani [10]): 2000 nM
- IC50 (Trypanosoma cruzi [11]): 1.58 µM
- IC50 (Leishmania donovani [12]): 3.98 µM

SMILES: O=C(COc1nn(-c2ccccc2)c2ncccc12)NCc1ccccc1
- IC50 (Leishmania donovani [1]): > 50100 nM
- IC50 at 48 h [2]: > 100 µM
- IC50 [3]: 6.31 µM
- IC50 [4]: > 39800 nM
- IC50 (Trypanosoma cruzi [5]): 12.6 µM
- IC50 (Trypanosoma cruzi [6]): > 50.1 µM
- IC50 (Leishmania donovani [7]): 79.4 nM
- IC50 [8]: > 39800 nM
- IC50 (Trypanosoma cruzi [9]): > 50100 nM
- IC50 (Leishmania donovani [10]): 316 nM
- IC50 (Trypanosoma cruzi [11]): 31.6 µM
- IC50 (Leishmania donovani [12]): 0.398 µM

SMILES: CC(=O)NCCNc1cc(-c2ccnc(Nc3cccc(Cl)c3)n2)ccn1
- IC50 (Leishmania donovani [1]): 100 nM
- IC50 at 48 h [2]: 25.1 µM
- IC50 [3]: 5.01 µM
- IC50 [4]: 200 nM
- IC50 (Trypanosoma cruzi [5]): 0.398 µM
- IC50 (Trypanosoma cruzi [6]): 1.58 µM
- IC50 (Leishmania donovani [7]): 100 nM
- IC50 [8]: 200 nM
- IC50 (Trypanosoma cruzi [9]): 398 nM
- IC50 (Leishmania donovani [10]): 251 nM
- IC50 (Trypanosoma cruzi [11]): 0.158 µM
- IC50 (Leishmania donovani [12]): 0.316 µM

SMILES: CC(C)n1c(-c2nonc2N)nc2cccc(OCCN3CCCC3)c21
- IC50 (Leishmania donovani [1]): 31600 nM
- IC50 at 48 h [2]: > 100 µM
- IC50 [3]: 39.8 µM
- IC50 [4]: 794 nM
- IC50 (Trypanosoma cruzi [5]): 10 µM
- IC50 (Trypanosoma cruzi [6]): 15.8 µM
- IC50 (Leishmania donovani [7]): 20000 nM
- IC50 [8]: 794 nM
- IC50 (Trypanosoma cruzi [9]): 31600 nM
- IC50 (Leishmania donovani [10]): 31600 nM
- IC50 (Trypanosoma cruzi [11]): 25.1 µM
- IC50 (Leishmania donovani [12]): > 50.1 µM

SMILES: Cc1ncsc1CNc1cnc(-c2ccc3c(c2)OCCO3)c(-c2cnn(C)c2)c1
- IC50 (Leishmania donovani [1]): 15800 nM
- IC50 at 48 h [2]: > 100 µM
- IC50 [3]: 7.94 µM
- IC50 [4]: 200 nM
- IC50 (Trypanosoma cruzi [5]): 12.6 µM
- IC50 (Trypanosoma cruzi [6]): 39.8 µM
- IC50 (Leishmania donovani [7]): 12600 nM
- IC50 [8]: 126 nM
- IC50 (Trypanosoma cruzi [9]): > 50100 nM
- IC50 (Leishmania donovani [10]): 15800 nM
- IC50 (Trypanosoma cruzi [11]): 20 µM
- IC50 (Leishmania donovani [12]): 25.1 µM

SMILES: Cc1cc(Nc2cc(C3CC3)[nH]n2)nc(N2CCCC2)n1
- IC50 (Leishmania donovani [1]): 126 nM
- IC50 at 48 h [2]: 31.6 µM
- IC50 [3]: > 100 µM
- IC50 [4]: 63.1 nM
- IC50 (Trypanosoma cruzi [5]): 0.0794 µM
- IC50 (Trypanosoma cruzi [6]): 0.1 µM
- IC50 (Leishmania donovani [7]): 50.1 nM
- IC50 [8]: 50.1 nM
- IC50 (Trypanosoma cruzi [9]): 251 nM
- IC50 (Leishmania donovani [10]): 158 nM
- IC50 (Trypanosoma cruzi [11]): 0.0794 µM
- IC50 (Leishmania donovani [12]): 0.794 µM

SMILES: Cc1cc(Nc2cc(C3CC3)[nH]n2)nc(N2CCC[C@H]2C(N)=O)n1
- IC50 (Leishmania donovani [1]): 126 nM
- IC50 at 48 h [2]: > 100 µM
- IC50 [3]: > 100 µM
- IC50 [4]: 63.1 nM
- IC50 (Trypanosoma cruzi [5]): 0.126 µM
- IC50 (Trypanosoma cruzi [6]): 0.0631 µM
- IC50 (Leishmania donovani [7]): 79.4 nM
- IC50 [8]: 12.6 nM
- IC50 (Trypanosoma cruzi [9]): 126 nM
- IC50 (Leishmania donovani [10]): 200 nM
- IC50 (Trypanosoma cruzi [11]): 0.02 µM
- IC50 (Leishmania donovani [12]): 0.631 µM
